Test system: 521955-158-R2-J5-PDC complex spheroid growth, % test/control
Assay: Anticancer human tumor 521955-158-R2-J5-PDC patient-derived pancreatic carcinoma cell line growth inhibition [Asc]
Conditions: for IC50: curve of first compound; for viability, T/C: stronger effect = lower value
Summary of the method: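 Tumor cells were grown as complex spheroids with human endothelial cells (HUVEC) and human mesenchymal stem cells as stroma. Agents were tested alone and in combination, in half-log steps down from the clinical Cmax, or from 10 microM where Cmax was unknown.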

[1] = second compound 0.1 µM, first compound 0.0316 µM
[2] = second compound 0.1 µM, first compound 0.1 µM
[3] = second compound 0.1 µM, first compound 0.316 µM
[4] = second compound 0.1 µM, first compound 1 µM
[5] = second compound 0.1 µM, first compound 3.16 µM
[6] = second compound 0.1 µM, first compound 10 µM
[7] = second compound 0.316 µM, first compound 0.0316 µM
[8] = second compound 0.316 µM, first compound 0.1 µM
[9] = second compound 0.316 µM, first compound 0.316 µM
[10] = second compound 0.316 µM, first compound 1 µM
[11] = second compound 0.316 µM, first compound 3.16 µM
[12] = second compound 0.316 µM, first compound 10 µM
[13] = second compound 1 µM, first compound 0.0316 µM
[14] = second compound 1 µM, first compound 0.1 µM
[15] = second compound 1 µM, first compound 0.316 µM
[16] = second compound 1 µM, first compound 1 µM
[17] = second compound 1 µM, first compound 3.16 µM
[18] = second compound 1 µM, first compound 10 µM
[19] = second compound 3.16 µM, first compound 0.0316 µM
[20] = second compound 3.16 µM, first compound 0.1 µM
[21] = second compound 3.16 µM, first compound 0.316 µM
[22] = second compound 3.16 µM, first compound 1 µM
[23] = second compound 3.16 µM, first compound 3.16 µM
[24] = second compound 3.16 µM, first compound 10 µM
[25] = second compound 10 µM, first compound 0.0316 µM
[26] = second compound 10 µM, first compound 0.1 µM
[27] = second compound 10 µM, first compound 0.316 µM
[28] = second compound 10 µM, first compound 1 µM
[29] = second compound 10 µM, first compound 3.16 µM
[30] = second compound 10 µM, first compound 10 µM
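Also: spheroids exposed to agents for 7 days before readout.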
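For viability, T/C in this document: 100% = DMSO vehicle control viability.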

C#Cc1c(F)ccc2cc(O)cc(-c3ncc4c(N5CC6CCC(C5)N6)nc(OCC56CCCN5CC(F)C6)nc4c3F)c12 (stereo not given) + Cc1c(S(C)(=O)=O)c(-c2cc(F)cc(N3CCN(c4ccc(NS(=O)(=O)c5ccc(NC(CCN6CCC(C(=O)OCCCP(=O)(O)O)CC6)CSc6ccccc6)c(S(=O)(=O)C(F)(F)F)c5)cc4)CC3)c2)c(-c2ccc(Cl)cc2)n1C(C)C
IC50 (second compound 0.1 µM): < 0.0316 µM | IC50 (second compound 0.316 µM): < 0.0316 µM | IC50 (second compound 1 µM): < 0.0316 µM | IC50 (second compound 3.16 µM): < 0.0316 µM | IC50 (second compound 10 µM): > 10 µM | viability, T/C [1]: 44.7% | viability, T/C [2]: 30.4% | viability, T/C [3]: 38.7% | viability, T/C [4]: 33.9% | viability, T/C [5]: 38.5% | viability, T/C [6]: 34% | viability, T/C [7]: 43.6% | viability, T/C [8]: 27.9% | viability, T/C [9]: 33.3% | viability, T/C [10]: 32.1% | viability, T/C [11]: 32.5% | viability, T/C [12]: 34.4% | viability, T/C [13]: 31.3% | viability, T/C [14]: 38.4% | viability, T/C [15]: 39.3% | viability, T/C [16]: 31.8% | viability, T/C [17]: 28.8% | viability, T/C [18]: 29.4% | viability, T/C [19]: 42.2% | viability, T/C [20]: 41.3% | viability, T/C [21]: 34.7% | viability, T/C [22]: 34.8% | viability, T/C [23]: 35.9% | viability, T/C [24]: 44.7% | viability, T/C [25]: 174% | viability, T/C [26]: 152% | viability, T/C [27]: 155% | viability, T/C [28]: 152% | viability, T/C [29]: 113% | viability, T/C [30]: 79.6%

C=C(F)C(=O)N1CCN(c2nc(OCC3CCCN3C)nc3c2CCN(c2cccc4cccc(Cl)c24)C3)CC1CC#N (stereo not given) + Cc1c(S(C)(=O)=O)c(-c2cc(F)cc(N3CCN(c4ccc(NS(=O)(=O)c5ccc(NC(CCN6CCC(C(=O)OCCCP(=O)(O)O)CC6)CSc6ccccc6)c(S(=O)(=O)C(F)(F)F)c5)cc4)CC3)c2)c(-c2ccc(Cl)cc2)n1C(C)C
IC50 (second compound 0.1 µM): 4.85 µM | IC50 (second compound 0.316 µM): 4.94 µM | IC50 (second compound 1 µM): 5.24 µM | IC50 (second compound 3.16 µM): 5.01 µM | IC50 (second compound 10 µM): 6.66 µM | viability, T/C [1]: 64.6% | viability, T/C [2]: 69.9% | viability, T/C [3]: 55.4% | viability, T/C [4]: 105% | viability, T/C [5]: 101% | viability, T/C [6]: 0.26% | viability, T/C [7]: 69% | viability, T/C [8]: 76.6% | viability, T/C [9]: 81.7% | viability, T/C [10]: 84.3% | viability, T/C [11]: 95.5% | viability, T/C [12]: 0.21% | viability, T/C [13]: 105% | viability, T/C [14]: 82.9% | viability, T/C [15]: 69.2% | viability, T/C [16]: 80.8% | viability, T/C [17]: 106% | viability, T/C [18]: 0.21% | viability, T/C [19]: 62.4% | viability, T/C [20]: 80.9% | viability, T/C [21]: 69.5% | viability, T/C [22]: 104% | viability, T/C [23]: 99.2% | viability, T/C [24]: 0.23% | viability, T/C [25]: 190% | viability, T/C [26]: 168% | viability, T/C [27]: 195% | viability, T/C [28]: 188% | viability, T/C [29]: 138% | viability, T/C [30]: 2.12%

CCN1C(C(=O)NC23CCC(C(=O)O)(CC2)CC3)C(c2cccc(Cl)c2F)C2(C(=O)Nc3cc(Cl)ccc32)C12CCCCC2 (stereo not given) + Cc1c(S(C)(=O)=O)c(-c2cc(F)cc(N3CCN(c4ccc(NS(=O)(=O)c5ccc(NC(CCN6CCC(C(=O)OCCCP(=O)(O)O)CC6)CSc6ccccc6)c(S(=O)(=O)C(F)(F)F)c5)cc4)CC3)c2)c(-c2ccc(Cl)cc2)n1C(C)C
IC50 (second compound 0.1 µM): > 3 µM | IC50 (second compound 0.316 µM): > 3 µM | IC50 (second compound 1 µM): > 3 µM | IC50 (second compound 3.16 µM): > 3 µM | IC50 (second compound 10 µM): > 3 µM | viability, T/C (second compound 0.1 µM, first compound 0.00949 µM): 70.7% | viability, T/C (second compound 0.1 µM, first compound 0.03 µM): 80.8% | viability, T/C (second compound 0.1 µM, first compound 0.0949 µM): 54.6% | viability, T/C (second compound 0.1 µM, first compound 0.3 µM): 95% | viability, T/C (second compound 0.1 µM, first compound 0.949 µM): 76.5% | viability, T/C (second compound 0.1 µM, first compound 3 µM): 92.6% | viability, T/C (second compound 0.316 µM, first compound 0.00949 µM): 73.3% | viability, T/C (second compound 0.316 µM, first compound 0.03 µM): 90.4% | viability, T/C (second compound 0.316 µM, first compound 0.0949 µM): 61.1% | viability, T/C (second compound 0.316 µM, first compound 0.3 µM): 72.8% | viability, T/C (second compound 0.316 µM, first compound 0.949 µM): 76% | viability, T/C (second compound 0.316 µM, first compound 3 µM): 89.6% | viability, T/C (second compound 1 µM, first compound 0.00949 µM): 66.2% | viability, T/C (second compound 1 µM, first compound 0.03 µM): 91% | viability, T/C (second compound 1 µM, first compound 0.0949 µM): 69.4% | viability, T/C (second compound 1 µM, first compound 0.3 µM): 74.1% | viability, T/C (second compound 1 µM, first compound 0.949 µM): 67.7% | viability, T/C (second compound 1 µM, first compound 3 µM): 64.5% | viability, T/C (second compound 3.16 µM, first compound 0.00949 µM): 111% | viability, T/C (second compound 3.16 µM, first compound 0.03 µM): 91.7% | viability, T/C (second compound 3.16 µM, first compound 0.0949 µM): 86.1% | viability, T/C (second compound 3.16 µM, first compound 0.3 µM): 100% | viability, T/C (second compound 3.16 µM, first compound 0.949 µM): 77% | viability, T/C (second compound 3.16 µM, first compound 3 µM): 76.7% | viability, T/C (second compound 10 µM, first compound 0.00949 µM): 151% | viability, T/C (second compound 10 µM, first compound 0.03 µM): 153% | viability, T/C (second compound 10 µM, first compound 0.0949 µM): 166% | viability, T/C (second compound 10 µM, first compound 0.3 µM): 169% | viability, T/C (second compound 10 µM, first compound 0.949 µM): 107% | viability, T/C (second compound 10 µM, first compound 3 µM): 112%

CNC(C)C(=O)NC1CN(S(=O)(=O)c2cccc(S(=O)(=O)N3CCC4CCC(C(=O)NC(c5ccccc5)c5ccccc5)N4C(=O)C(NC(=O)C(C)NC)C3)c2)CCC2CCC(C(=O)NC(c3ccccc3)c3ccccc3)N2C1=O (stereo not given) + Cc1c(S(C)(=O)=O)c(-c2cc(F)cc(N3CCN(c4ccc(NS(=O)(=O)c5ccc(NC(CCN6CCC(C(=O)OCCCP(=O)(O)O)CC6)CSc6ccccc6)c(S(=O)(=O)C(F)(F)F)c5)cc4)CC3)c2)c(-c2ccc(Cl)cc2)n1C(C)C
IC50 (second compound 0.1 µM): > 1 µM | IC50 (second compound 0.316 µM): > 1 µM | IC50 (second compound 1 µM): > 1 µM | IC50 (second compound 3.16 µM): > 1 µM | IC50 (second compound 10 µM): > 1 µM | viability, T/C (second compound 0.1 µM, first compound 0.00316 µM): 75.6% | viability, T/C (second compound 0.1 µM, first compound 0.01 µM): 64% | viability, T/C [1]: 57.1% | viability, T/C [2]: 76.4% | viability, T/C [3]: 64% | viability, T/C [4]: 67.9% | viability, T/C (second compound 0.316 µM, first compound 0.00316 µM): 92.7% | viability, T/C (second compound 0.316 µM, first compound 0.01 µM): 86.7% | viability, T/C [7]: 89.3% | viability, T/C [8]: 74.6% | viability, T/C [9]: 91.1% | viability, T/C [10]: 87.6% | viability, T/C (second compound 1 µM, first compound 0.00316 µM): 97.2% | viability, T/C (second compound 1 µM, first compound 0.01 µM): 88.4% | viability, T/C [13]: 71.8% | viability, T/C [14]: 77.8% | viability, T/C [15]: 59.8% | viability, T/C [16]: 75.7% | viability, T/C (second compound 3.16 µM, first compound 0.00316 µM): 97.7% | viability, T/C (second compound 3.16 µM, first compound 0.01 µM): 75.9% | viability, T/C [19]: 47.5% | viability, T/C [20]: 80.6% | viability, T/C [21]: 65.8% | viability, T/C [22]: 60.4% | viability, T/C (second compound 10 µM, first compound 0.00316 µM): 192% | viability, T/C (second compound 10 µM, first compound 0.01 µM): 171% | viability, T/C [25]: 180% | viability, T/C [26]: 149% | viability, T/C [27]: 197% | viability, T/C [28]: 121%

— PubChem BioAssay AID1963430 (Molecular Pharmacology Branch, DTP, NCI, 2024)
